The results in this text go back to PubChem BioAssay (NCI).

Each structure is given as a SMILES string.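 Exposure lasted 48 hours, with cells grown in 96-well plates and compounds tested at five concentrations. GI50 marks 50% less growth. TGI is the concentration that stops growth completely.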

Some test systems named below: NCI-H23 lung; UACC-62 melanoma; HOP-62 NSCLC; T-47D breast; BT-549 breast; UACC-257 melanoma; 786-0 renal; SR leukemia; SK-MEL-28 melanoma; SK-OV-3 ovarian.
What all share (test): growth of human tumour cells (NCI), 48 h

Take `COc1cc(-c2cc(-c3ccc(N(C)C)cc3)nc(N3CCC(O)CC3)c2C#N)cc(OC)c1OC`: the GI50 with NCI-H23 lung was 1.35 µM; with UACC-62 melanoma, 0.277 µM; with HOP-62 NSCLC, 0.953 µM; in the test with T-47D breast, 0.458 µM; in the test with BT-549 breast, 0.688 µM; in the test with UACC-257 melanoma, 0.3 µM. Further, the GI50 in the test on 786-0 renal was 0.399 µM; with SR leukemia, 0.432 µM; in the test with SK-MEL-28 melanoma it was 0.992 µM; with SK-OV-3 ovarian it was 2.11 µM. Besides, the TGI in the test on NCI-H23 lung came to 6.74 µM; in the test on UACC-62 melanoma, 0.741 µM; with HOP-62 NSCLC, 24.3 µM; in the test on T-47D breast it was 4.07 µM; in the test on BT-549 breast, 6.8 µM; in the test with UACC-257 melanoma it was 0.969 µM. Besides, the TGI in the test on 786-0 renal was more than 100 µM; in the test with SR leukemia, 2.94 µM; in the test with SK-MEL-28 melanoma, 3.23 µM; in the test on SK-OV-3 ovarian it was 57.7 µM.
As to `COc1cc[c]([Hg][Cl])cc1`, the GI50 was 3.03 µM in the test on NCI-H23 lung; 4.09 µM with UACC-62 melanoma; 20.4 µM with HOP-62 NSCLC; 1.68 µM with T-47D breast; 2.97 µM in the test on BT-549 breast; 4.16 µM with UACC-257 melanoma. The GI50 in the test with 786-0 renal was 3.76 µM; with SR leukemia it was 0.245 µM; in the test on SK-MEL-28 melanoma, 1.65 µM; in the test with SK-OV-3 ovarian, 14.2 µM. Also, the TGI with NCI-H23 lung came to 22.4 µM; in the test with UACC-62 melanoma, 14.9 µM; in the test with HOP-62 NSCLC, 37.8 µM; in the test with T-47D breast, 4.47 µM; with BT-549 breast it was 9.16 µM; in the test on UACC-257 melanoma, 14.5 µM. Besides, the TGI in the test on 786-0 renal worked out at 10.8 µM; in the test with SR leukemia it was 4.13 µM; in the test with SK-MEL-28 melanoma it was 3.36 µM; in the test on SK-OV-3 ovarian, 27.3 µM.
Take `Cc1c2c(n3c(nc4ccccc43)c1C#N)SCC2`: the TGI with NCI-H23 lung, in the test with UACC-62 melanoma, in the test with HOP-62 NSCLC, with T-47D breast, in the test with BT-549 breast and in the test on UACC-257 melanoma was more than 10 µM throughout. Also, the TGI in the test on 786-0 renal, in the test with SR leukemia, in the test on SK-MEL-28 melanoma and in the test on SK-OV-3 ovarian was more than 10 µM each time.
As for `CC(=O)OCC1OC(n2cc(F)c(=O)[nH]c2=O)C(OC(C)=O)C1OC(C)=O` (centres undefined), the TGI is more than 100 µM in the test on NCI-H23 lung; more than 100 µM in the test on UACC-62 melanoma; more than 96.5 µM in the test on HOP-62 NSCLC; more than 100 µM with T-47D breast; more than 100 µM in the test on BT-549 breast; more than 100 µM with UACC-257 melanoma. Also, the TGI in the test on 786-0 renal was more than 94.5 µM; in the test with SR leukemia it was more than 78.5 µM; in the test with SK-MEL-28 melanoma it was more than 100 µM; in the test on SK-OV-3 ovarian it was more than 100 µM.
Consider `O=C(Cn1ccnc1[N+](=O)[O-])NCCO`, for which the TGI with NCI-H23 lung, in the test with UACC-62 melanoma, with HOP-62 NSCLC, in the test on T-47D breast, with BT-549 breast and in the test with UACC-257 melanoma was more than 100 µM in each case. The TGI in the test with 786-0 renal, in the test with SR leukemia, in the test with SK-MEL-28 melanoma and in the test with SK-OV-3 ovarian was more than 100 µM throughout.
Consider `CCc1nc(N)nc(N)c1-c1ccc(Cl)cc1`, for which the GI50 is 7.62 µM in the test on NCI-H23 lung; 3.93 µM in the test with UACC-62 melanoma; 26.7 µM with HOP-62 NSCLC; 45.5 µM in the test with T-47D breast; 10.3 µM in the test with UACC-257 melanoma; 5.89 µM in the test with 786-0 renal. Further, the GI50 in the test with SR leukemia is 18.7 µM; in the test with SK-MEL-28 melanoma it was more than 100 µM; in the test on SK-OV-3 ovarian, 84.9 µM. Also, the TGI with NCI-H23 lung, with UACC-62 melanoma, in the test with HOP-62 NSCLC, with T-47D breast, with BT-549 breast and with UACC-257 melanoma was more than 100 µM each time. Also, the TGI in the test on 786-0 renal, with SR leukemia, in the test with SK-MEL-28 melanoma and with SK-OV-3 ovarian was more than 100 µM each time.
